According to patent US8679746B2, “Compositions and methods for predicting outcome of treatment” (Dako Denmark A/S, priority 2005, dated 2014):

How the values were obtained:
[1] = cited from earlier work
[2] = test system: breast cancer; conditions: in vivo; cited from earlier work
[3] = test system: metastatic head and neck cancer; assay: 5-FU infusion in a patient with metastatic head and neck cancer; format: in vivo; conditions: one patient; 1000 mg/m^2 per 24 hours, 120 hours infusion; evaluated after one and a half month
Protocol: A patient with metastatic head and neck cancer was treated with 5-fluorouracil (5-FU) infusion at a dose of 1000 mg/m^2 per 24 hours. The total infusion time was 120 hours.

## CCCCCOC(=O)Nc1nc(=O)n([C@@H]2O[C@H](C)[C@@H](O)[C@H]2O)cc1F [capecitabine]
[1]; tumor tissue vs plasma
  higher concentrations in tumor tissue compared to plasma: 21 fold
[1]; tumor vs normal tissue
  higher FU concentration in tumor compared to normal tissue: 3.2 fold

## COc1cccc2c1C(=O)c1c(O)c3c(c(O)c1C2=O)C[C@@](O)(C(=O)CO)C[C@@H]3O[C@H]1C[C@H](N)[C@@H](O)[C@H](C)O1 [epirubicin]
[2]
  reduction in overall survival on substitution of methotrexate in CMF with epirubicin: 25%

## O=c1[nH]cc(F)c(=O)[nH]1 [5-FU, 5-Fluorouracil]
[3]
  treatment response: progressive disease
